What was measured:
Type in all cases: in vivo, male mice (ddY-strain)
[1] = tested on: mice; assay: Acute toxicity (oral, 72 hours); settings: for Safety margin (LD50 /ED50): potency ratio of the acute toxicity to the muscle relaxing activity, oral, mice
Method: (§1) A test compound dissolved or suspended in an aqueous 0.5% carboxymethylcellulose sodium salt solution was administered orally to a group of six male mice (ddY-strain, body weight: 18-20 g). The 50% lethal dose (LD50) of the test compound was calculated according to the probit method from the number of mice which died within a period of 72 hours after administration.

[2] = Acute toxicity (oral, 72 hours); settings: mouse, in vivo; oral, mice, deaths within 72 hours, probit method
Method: as §1

[3] = tested on: mice; assay: Muscle relaxing activity (the rotating rod method)
Method: A test compound dissolved or suspended in an aqueous 0.5% carboxymethylcellulose sodium salt solution was administered orally to a group of three male mice (ddY-strain, body weight: 18-20 g). After administration of the test compound, the mice were placed on a rotating rod (3.5 cm in diameter, 7.5 r.p.m.) at intervals, and the number of mice which fell out of the rod at least twice within one minute was counted. The 50% effective dose (ED50) of the test compound was calculated therefrom according to the probit method.

Row | Compound | Safety margin (LD50 /ED50) [1] | safety margin, times as high as that of Mephenesin ([1]; acute toxicity to muscle relaxing activity ratio, relative to Mephenesin) | LD50 at 72 h [2] [mg/kg] | ED50 ([3]; Mus musculus, oral, mice, rotating rod, probit method) [mg/kg] | muscle relaxing activity, times stronger than that of Mephenesin ([3]; rotating rod method (mice), relative to Mephenesin)
1 | Cc1ccccc1OCC(O)CO (stereo not drawn) [Mephenesin, 3-(o-tolyloxy)-1,2-propanediol, reference compound] | 4.06 |  |  |  | 
2 | Cc1cc(Cl)ccc1-n1c(CF)nc2ccc(N)cc2c1=O [Test compound 1, 2-fluoromethyl-3-(2-methyl-4-chlorophenyl)-6-amino-4(3H)-quinazolinone] | 51.6 | about 12.7 times | 702 | 13.6 | about 36.6 times
